# The source made the active and inactive calls. The calls are words filed in the database; no cut-off is given here.
# Assays:
# [1] = f%TMIC in ip dosed Bacillus anthracis Ames infected BALB/c mouse model at ED50 administered 24 hrs postinfection at 4 hrs interval for 14 days measured on day 27; type: functional
# Bacillus anthracis [2] = assay: microbe, parasite or virus in culture; type: functional
# Bacillus anthracis [3] = assay: microbe, parasite or virus in culture; type: functional; remark: listed apart in the source
# Bacillus anthracis [4] = assay: Antibacterial activity against beta-lactamase Bla1 and Bla2-producing Bacillus anthracis Sterne by broth microdilution method; type: functional
# Homo sapiens [5] = organism: Homo sapiens; assay: Plasma protein binding in human at 1000 ug/ml by ultrafiltration technique; conditions: read-out: PPB (converted)
# [6] = f%TMIC in Bacillus anthracis Ames infected human model at 600 […], BID; type: functional
# Bacillus anthracis [7] = assay: Antibacterial activity against Bacillus anthracis Ames infected in BALB/c mouse assessed as survival rate at 20 mg/kg, ip administered 24 hrs postinfection at 4 hrs interval for 14 days measured on day 27; type: functional; conditions: route intraperitoneal
# Bacillus anthracis [8] = assay: microbe, parasite or virus in culture; type: functional; remark: listed apart in the source
# Bacillus anthracis [9] = assay: microbe, parasite or virus in culture; type: functional; remark: listed apart in the source
# Bacillus anthracis [10] = assay: microbe, parasite or virus in culture; type: functional; remark: listed apart in the source
# Bacillus anthracis [11] = assay: f%TMIC in Bacillus anthracis Ames infected pharmacokinetic-pharmacodynamic model at 0.25 ug/ml; type: functional
# Bacillus anthracis [12] = assay: f%TMIC in Bacillus anthracis Ames infected pharmacokinetic-pharmacodynamic model at 0.12 ug/ml; type: functional
# Bacillus anthracis [13] = assay: microbe, parasite or virus in culture; type: functional; remark: listed apart in the source
# Bacillus anthracis [14] = assay: microbe, parasite or virus in culture; type: functional; remark: listed apart in the source
# [15] = f%TMIC in ip dosed Bacillus anthracis Ames infected BALB/c mouse model at ED90 administered 24 hrs postinfection at 4 hrs interval for 14 days measured on day 27; type: functional
# Bacillus anthracis [16] = assay: Antibacterial activity against Bacillus anthracis Ames infected in BALB/c mouse assessed as survival rate at 20 mg/kg, ip administered 24 hrs postinfection at 12 hrs interval for 14 days measured on day 27; type: functional; conditions: route intraperitoneal
# Bacillus anthracis [17] = assay: Antibacterial activity against Bacillus anthracis Ames infected in BALB/c mouse assessed as survival rate at 80 mg/kg, ip administered 24 hrs postinfection at 4 hrs interval for 14 days measured on day 27; type: functional; conditions: route intraperitoneal
# Bacillus anthracis [18] = assay: Antibacterial activity against Bacillus anthracis Ames infected in BALB/c mouse assessed as decrease in bacterial load in lungs at 20 mg/kg, ip administered 24 hrs postinfection at 4 hrs interval for 14 days measured on day 27; type: functional, organism-based; design: dose 20 mg/kg
# Bacillus anthracis [19] = assay: microbe, parasite or virus in culture; type: functional; remark: listed apart in the source
# Streptococcus pneumoniae [20] = assay: f%TMIC in Streptococcus pneumoniae infected pharmacokinetic-pharmacodynamic model; type: functional
# [21] = f%TMIC in ip dosed Bacillus anthracis Ames infected BALB/c mouse model at ED99 administered 24 hrs postinfection at 4 hrs interval for 14 days measured on day 27; type: functional
# Bacillus anthracis [22] = assay: Antibacterial activity against Bacillus anthracis Ames infected in BALB/c mouse assessed as survival rate at 10 mg/kg, ip administered 24 hrs postinfection at 4 hrs interval for 14 days measured on day 27; type: functional; conditions: route intraperitoneal
# Bacillus anthracis [23] = assay: microbe, parasite or virus in culture; type: functional; remark: listed apart in the source
# Bacillus anthracis [24] = assay: microbe, parasite or virus in culture; type: functional; remark: listed apart in the source
# [25] = Plasma protein binding in CD1 mouse at 1000 ug/ml by ultrafiltration technique; type: ADME, cell-free; conditions: read-out: PPB (converted)
# Bacillus anthracis [26] = assay: Antibacterial activity against Bacillus anthracis Ames infected in BALB/c mouse assessed as survival rate at 40 mg/kg, ip administered 24 hrs postinfection at 6 hrs interval for 14 days measured on day 27; type: functional; conditions: route intraperitoneal
# Bacillus anthracis [27] = assay: Antibacterial activity against Bacillus anthracis Ames infected in BALB/c mouse assessed as survival rate at 40 mg/kg, ip administered 24 hrs postinfection at 12 hrs interval for 14 days measured on day 27; type: functional; conditions: route intraperitoneal
# Bacillus anthracis [28] = assay: microbe, parasite or virus in culture; type: functional; remark: listed apart in the source
# Bacillus anthracis [29] = assay: microbe, parasite or virus in culture; type: functional; remark: listed apart in the source
# Bacillus anthracis [30] = assay: microbe, parasite or virus in culture; type: functional; remark: listed apart in the source
# Bacillus anthracis [31] = assay: microbe, parasite or virus in culture; type: functional; remark: listed apart in the source
# Bacillus anthracis [32] = assay: Antibacterial activity against Bacillus anthracis Ames infected in BALB/c mouse assessed as survival rate at 40 mg/kg, ip administered 24 hrs postinfection at 4 hrs interval for 14 days measured on day 27; type: functional; conditions: route intraperitoneal
# Bacillus anthracis [33] = assay: microbe, parasite or virus in culture; type: functional; remark: listed apart in the source
# Bacillus anthracis [34] = assay: microbe, parasite or virus in culture; type: functional; remark: listed apart in the source
# Bacillus anthracis [35] = assay: Antibacterial activity against Bacillus anthracis Ames infected in BALB/c mouse assessed as survival rate at 20 mg/kg, ip administered 24 hrs postinfection at 6 hrs interval for 14 days measured on day 27; type: functional; conditions: route intraperitoneal
# Bacillus anthracis [36] = assay: microbe, parasite or virus in culture; type: functional; remark: listed apart in the source
# Bacillus anthracis [37] = assay: microbe, parasite or virus in culture; type: functional; remark: listed apart in the source
# Bacillus anthracis [38] = assay: microbe, parasite or virus in culture; type: functional; remark: listed apart in the source
# Bacillus anthracis [39] = assay: microbe, parasite or virus in culture; type: functional; remark: listed apart in the source
# Bacillus anthracis [40] = assay: microbe, parasite or virus in culture; type: functional; remark: listed apart in the source
# Bacillus anthracis [41] = assay: microbe, parasite or virus in culture; type: functional; remark: listed apart in the source
# Bacillus anthracis [42] = assay: microbe, parasite or virus in culture; type: functional; remark: listed apart in the source
# Bacillus anthracis [43] = assay: Antibacterial activity against Bacillus anthracis Ames infected in BALB/c mouse assessed as survival rate at 10 mg/kg, ip administered 24 hrs postinfection at 6 hrs interval for 14 days measured on day 27; type: functional; conditions: route intraperitoneal
# Bacillus anthracis [44] = assay: microbe, parasite or virus in culture; type: functional; remark: listed apart in the source
# Bacillus anthracis [45] = assay: Antibacterial activity against Bacillus anthracis Ames infected in BALB/c mouse assessed as survival rate at 80 mg/kg, ip administered 24 hrs postinfection at 6 hrs interval for 14 days measured on day 27; type: functional; conditions: route intraperitoneal
# Homo sapiens [46] = organism: Homo sapiens; assay: Plasma protein binding in human at 5 ug/ml by ultrafiltration technique; conditions: read-out: PPB (converted)
# Bacillus anthracis [47] = assay: Antibacterial activity against Bacillus anthracis Ames infected in BALB/c mouse assessed as survival rate at 80 mg/kg, ip administered 24 hrs postinfection at 12 hrs interval for 14 days measured on day 27; type: functional; conditions: route intraperitoneal
# Bacillus anthracis [48] = assay: microbe, parasite or virus in culture; type: functional; remark: listed apart in the source
# Bacillus anthracis [49] = assay: microbe, parasite or virus in culture; type: functional; remark: listed apart in the source
# Bacillus anthracis [50] = assay: microbe, parasite or virus in culture; type: functional; remark: listed apart in the source
# Bacillus anthracis [51] = assay: Antibacterial activity against Bacillus anthracis Ames infected in BALB/c mouse assessed as survival rate at 10 mg/kg, ip administered 24 hrs postinfection at 12 hrs interval for 14 days measured on day 27; type: functional; conditions: route intraperitoneal
# Bacillus anthracis [52] = assay: microbe, parasite or virus in culture; type: functional; remark: listed apart in the source
# Streptococcus pneumoniae [53] = assay: Antibacterial activity against Streptococcus pneumoniae clinical isolates; type: functional
# [54] = Plasma protein binding in CD1 mouse at 5 ug/ml by ultrafiltration technique; type: ADME, cell-free; conditions: read-out: PPB (converted)
# Bacillus anthracis [55] = assay: f%TMIC in Bacillus anthracis Ames infected pharmacokinetic-pharmacodynamic model at 0.5 ug/ml; type: functional
structure (smiles),measurement,setting,value
Cc1oc(=O)oc1COC(=O)C1=C([C@H]2CCCO2)S[C@@H]2[C@@H]([C@@H](C)O)C(=O)N12 [FAROPENEM MEDOXOMIL],fT>MIC,[1],10.6%
same,MIC,Bacillus anthracis [2],≤ 0.06 µg/mL
same,MIC,Bacillus anthracis [3],≤ 0.06 µg/mL
same,MIC,Bacillus anthracis [4],≤ 0.06 µg/mL
same,fraction unbound at 1000 ug/ml,Homo sapiens [5],0.787
same,fT>MIC,[6],62%
same,survival at 20 mg/kg,Bacillus anthracis [7],80%
same,MIC,Bacillus anthracis [8],0.25 µg/mL
same,MIC,Bacillus anthracis [9],0.12 µg/mL
same,MIC,Bacillus anthracis [10],≤ 0.06 µg/mL
same,fT>MIC,Bacillus anthracis [11],44%
same,fT>MIC,Bacillus anthracis [12],51%
same,MIC,Bacillus anthracis [13],≤ 0.06 µg/mL
same,MIC,Bacillus anthracis [14],0.25 µg/mL
same,fT>MIC,[15],13.4%
same,survival at 20 mg/kg,Bacillus anthracis [16],10%
same,survival at 80 mg/kg,Bacillus anthracis [17],100%
same,inhibition,Bacillus anthracis [18],Active
same,MIC,Bacillus anthracis [19],1 µg/mL
same,fT>MIC,Streptococcus pneumoniae [20],13.9%
same,fT>MIC,[21],16.4%
same,survival at 10 mg/kg,Bacillus anthracis [22],77.8%
same,MIC,Bacillus anthracis [23],0.12 µg/mL
same,MIC,Bacillus anthracis [24],0.12 µg/mL
same,fraction unbound at 1000 ug/ml,[25],0.82
same,survival at 40 mg/kg,Bacillus anthracis [26],90%
same,survival at 40 mg/kg,Bacillus anthracis [27],20%
same,MIC,Bacillus anthracis [28],≤ 0.06 µg/mL
same,MIC,Bacillus anthracis [29],0.12 µg/mL
same,MIC,Bacillus anthracis [30],0.12 µg/mL
same,MIC,Bacillus anthracis [31],0.12 µg/mL
same,survival at 40 mg/kg,Bacillus anthracis [32],80%
same,MIC,Bacillus anthracis [33],0.12 µg/mL
same,MIC,Bacillus anthracis [34],> 64 µg/mL
same,survival at 20 mg/kg,Bacillus anthracis [35],60%
same,MIC,Bacillus anthracis [36],≤ 0.06 µg/mL
same,MIC,Bacillus anthracis [37],0.12 µg/mL
same,MIC,Bacillus anthracis [38],0.12 µg/mL
same,MIC,Bacillus anthracis [39],0.12 µg/mL
same,MIC,Bacillus anthracis [40],0.12 µg/mL
same,MIC,Bacillus anthracis [41],0.25 µg/mL
same,MIC,Bacillus anthracis [42],0.12 µg/mL
same,survival at 10 mg/kg,Bacillus anthracis [43],30%
same,MIC,Bacillus anthracis [44],0.06 µg/mL
same,survival at 80 mg/kg,Bacillus anthracis [45],90%
same,fraction unbound at 5 ug/ml,Homo sapiens [46],0.1
same,survival at 80 mg/kg,Bacillus anthracis [47],22.2%
same,MIC,Bacillus anthracis [48],0.5 µg/mL
same,MIC,Bacillus anthracis [49],≤ 0.06 µg/mL
same,MIC,Bacillus anthracis [50],≤ 0.06 µg/mL
same,survival at 10 mg/kg,Bacillus anthracis [51],0%
same,MIC,Bacillus anthracis [52],0.25 µg/mL
same,MIC,Streptococcus pneumoniae [53],0.008 µg/mL
same,fraction unbound at 5 ug/ml,[54],0.15
same,fT>MIC,Bacillus anthracis [55],32%

# Source: ChEMBL document CHEMBL1255419, “Pharmacokinetic-pharmacodynamic assessment of faropenem in a lethal murine Bacillus anthracis inhalation postexposure prophylaxis model” (Antimicrob Agents Chemother, 2010)
